Assay results from patent publication US12121565B2, “Methods of treatment of specific cancers with NLRP3 inhibitors and anti-PD1/PD-L1 antibodies” (Duke University, priority 2019, dated 2024).

What was measured:
[1] = test system: BRAFV600E PTEN−/− melanoma cell line; assay: In vitro treatment of melanoma cell line followed by Western blot, qRT-PCR, IP, ASC polymerization or ELISA; assay type: cell-based, mouse; conditions: with or without NLRP3 inhibitor MCC950
From the text: Braf^V600EPten^−/− (male, BPD6 (40)), Braf^V600EPten^−/−-Wnt5a^KD (40), Braf^V600EPten^−/−-CXCL5^KD, Braf^V600EPten^−/−-PDL1^KD, Braf^V600EPten^−/−-NLRP3^KD, OVA-expressing Braf^V600EPten^−/−, BRAF^V600EPTEN^−/−-STAT3^CA, and Braf^V600EPten^−/−-NTC (40) cell lines were generated using shRNA-expressing lentiviral vectors and cultured as previously described (40): shNLRP3 (Sigma, SHCLN-NM_145827), shPDL1 (Sigma, SHCLND-NM_021893), shWnt5a (Sigma, SHCLND-NM_009524), shTLR4 (Sigma, SHCLNG-NM_025817, and pLKO.1-puro empty vector control (NTC) (Sigma, SHC001). Stable cell lines were selected by puromycin resistance (Sigma-Aldrich, P8833). Murine Lewis Lung Carcinoma (LLC) cell line is from ATCC (1704526). All cell lines were tested Mycoplasma-free by Duke University Cell Culture Facility shared services. All Braf^V600EPten^−/− cell lines and the LLC cell line were maintained at 37° C. in DMEM (Invitrogen) with 2 mM L-glutamine, supplemented with 10% fetal bovine serum, 100 units/ml penicillin. Depending on the experiment, cell lines were treated with Wnt5a (100-200 ng/ml, R&D Systems/Bio-techne, 645-WN-010), IFNγ (100 ng/ml, BioAbChem, 42-IFNg), anti-PD-L1 ab (1-2 μg/ml), Hsp70 (1 μM-10 μM, Enzo, ADI-ESP-502-D), Hsp70 inhibitor (ThermoFisher, VER155008), CLI-095 TLR4 inhibitor (3 μM-10 μM, Invivogen, tlrl-cli95), TLR2-IN-C29 TLR2 inhibitor (1 μM-10 μM, Glixx, GLXC-06203), MPLA TLR4 agonist (10 μM, Enzo, ALX-581-205-C100), LPS (Lipopolysaccharide) (10 ng, Sigma-Aldrich, L4391-1MG), ATP (1 mM-5 mM, Invivogen, tlrl-atpl), MCC950 NLRP3 inhibitor (2.5 μM-10 μM, Invivogen, inh-mcc), XAV939 β-catenin inhibitor (0.5-1.0 μM, Sigma-Aldrich, X3004-5MG), 2-Aminopurine PKR inhibitor (1 mM-5 mM, Invivogen, tlrl-apr), Verteporfin YAP inhibitor (0.1 μM-1 μM, R&D Systems/Bio-techne, 530510) or vehicle control either for 24 or 48 hrs prior to in vitro and in vivo experiments. Control siRNA (Santa Cruz, sc-37007). TLR4 siRNA (SantaCruz, sc-40261).
(§1) OT-1 CD8 cell activation was performed by incubating isolated splenocytes of OT-1 transgenic mice with IL-2 (100 U/ml) and SIINFEKL peptide (1 μg/ml, New England Peptide, BP10-915) for 3 days followed by magnetic bead CD8 purification according to the manufacturer's instructions (Miltenyi biotec, 130-104-075). Activated OT-1 CD8 cells were incubated with Braf^V600EPten^−/−-OVA cells and treated with anti-PD1 ab (1 μg/ml) for 72 hrs at a tumor cell:CD8^+ T cell ratio of 1:5. In separate experiments, Braf^V600EPten^−/− cells were treated with increasing concentrations of Dacarbazine (10 μmol-400 μmol).
Tumor tissue or cells were homogenized in NP40 lysis buffer (Sigma-Aldrich) supplemented with complete protease inhibitor and phosphatase inhibitor (Roche). Cells were lysed in Laemmli sample buffer after treatment and subjected to SDS-polyacrylamide gel electrophoresis. After transferring onto PVDF membranes (Bio-Rad), monoclonal and polyclonal primary antibodies and appropriate HRP-conjugated secondary antibodies were utilized for blotting. For the immunoprecipitation assays, cells were lysed with TBS buffer (50 mM Tris-HCl (pH 7.4), 150 mM NaCl) containing 0.5% Triton X-100, EDTA-free protease inhibitor cocktail and phosphatase inhibitor cocktail, precleared with protein A/G beads, and then incubated with 1 μg of appropriate antibodies or isotype control IgG on a rotator overnight at 4° C. then incubated with protein A/G-agarose at 4° C. for 1 hour. After 5 washes with TBS buffer, immunoprecipitated complexes were eluted in sample buffer by boiling and subjected to immunoblot analysis. Immunoblots were visualized by chemiluminescence substrate (ThermoFisher) and imaged by a ChemiDoc XRSplus system (BioRad). For the ASC polymerization assay, cells were lysed with TBS buffer containing 0.5% Triton X-100, EDTA-free protease inhibitor cocktail and phosphatase inhibitor cocktail. The lysates were centrifuged at 4,000 g at 4° C. for 15 min. […]

[2] = test system: OT-1 CD8+ T cell:BRAFV600E OVA melanoma coculture; assay: Coculture of OT-1 CD8+ T cells with OVA-expressing melanoma cells followed by Western blot; assay type: cell-based, mouse; conditions: increasing concentrations of NLRP3 inhibitor
Experimental: as §1
Tumor tissue or cells were homogenized in NP40 lysis buffer (Sigma-Aldrich) supplemented with complete protease inhibitor and phosphatase inhibitor (Roche). Cells were lysed in Laemmli sample buffer after treatment and subjected to SDS-polyacrylamide gel electrophoresis. After transferring onto PVDF membranes (Bio-Rad), monoclonal and polyclonal primary antibodies and appropriate HRP-conjugated secondary antibodies were utilized for blotting. […]

Compound: CC(C)(O)c1coc(S(=O)(=O)NC(=O)Nc2c3c(cc4c2CCC4)CCC3)c1 [MCC950, N-[[(1,2,3,5,6,7-hexahydro-s-indacen-4-yl)amino]carbonyl]-4-(1-hydroxy-1-methylethyl)-2-furansulfonamide]
- ATP stimulation of HSP70 release [1]: block
- CD8+ T cell-mediated induction of HSP70 release [2]: block
